Data on five compounds can be found in publication PMC9782626, “Copper(II) Complexes of 5–Fluoro–Salicylaldehyde: Synthesis, Characterization, Antioxidant Properties, Interaction with DNA and Serum Albumins” (Molecules, 2022).

Test [1] can be described thus: DPPH radical scavenging assay. The test is classed as biochemical. The settings on record: compound 0.1 mM. From the text:
For the above reasons, the antioxidant ability of 5–F–saloH and Cu(II) complexes 1–5 has been evaluated via their scavenging activity towards DPPH and ABTS radicals, as well as the ability to reduce H2O2, and in comparison with that of well-known antioxidant agents such as nordihydroguaiaretic acid (NDGA), butylated hydroxytoluene (ΒHΤ), 6–hydroxy–2,5,7,8–tetramethylchromane–2–carboxylic acid (trolox) and L–ascorbic acid (these are the most commonly used standard reference antioxidant agents). The DPPH-radical assay was developed in the 1950s and this method has been used to assess the antioxidant capacity of several metal complexes. The DPPH–scavenging ability of compounds has often been related to their ability to prevent ageing, cancer and inflammation. The ability of a compound to scavenge the cationic ABTS radicals (ABTS^+●) has been considered a measure of its total antioxidant activity. Further, hydrogen peroxide has the ability to penetrate biological membranes and, although it is not very reactive itself, it can sometimes be toxic since it may give rise to hydroxyl radicals in cells. For this reason, the removal of H2O2 is very important for the protection of living systems. When a compound is incubated with H2O2 using a peroxidase assay system, the loss of H2O2 can be measured.
S1 Antioxidant activity assay
The antioxidant activity of the compounds was evaluated via their ability to scavenge in vitro free radicals such as DPPH and ABTS and to reduce H 2O2. All the experiments were carried out at least in triplicate and the standard deviation of absorbance was less than 10% of the mean.
S1.1 Determination of the reducing activity of the radical DPPH
To an ethanolic solution of DPPH (0.1 mM) an equal volume solution of the compounds (0.1 mM) in ethanol was added. Absolute ethanol was also used as control solution. The absorbance at 517 nm was recorded at room temperature after 30 and 60 min, in order to examine the possible existence of a potential time-dependence of the DPPH radical scavenging act iv ity [S 1]. The DPPH -scavenging activity of the compounds was expressed as the percentage reduction of the absorbance values of the initial DPPH solution ( DPPH%). N DGA and BHT were used as reference comp ounds. […]

Test [2] concerns the target T1, human serum albumin (HSA) (Homo sapiens, UniProt P02768).
T1 construct: purchased Sigma–Aldrich Co
Description: Albumin binding by tryptophan fluorescence quenching (HSA). The settings on record: for ΔΙ/Ιο, quenching of the HSA fluorescence: HSA 3 μM, λex 295 nm; for % relative HSA fluorescence emission intensity I/Io remaining (% of initial): final value, pH 7.0; for HSA-binding constant K: Scatchard equation; for HSA-quenching constant kq: from Stern–Volmer plots, τo 10^-8 s. From the text:
Serum albumins are among the important proteins of the circulatory system. Their main role is to carry drugs and other bioactive small molecules through the bloodstream. BSA and HSA are structurally homologous albumins, having two and one tryptophan residues, respectively. The tryptophan residues of both albumins are responsible for the intense fluorescence emission band with λem,max = 342 nm for BSA and 350 nm for HSA, respectively, when their solutions are excited at 295 nm. […] The inner-filter effect was calculated with Equation (S4) and it was found too low to affect the measurements.
When the compounds were added to a solution of the albumins (3 μM), a significant quenching of the BSA (λem = 342 nm) and HSA (λem = 350 nm) fluorescence emission bands was observed (Figure 7) which was more pronounced in the case of BSA (Table 7 and Figure 8). […] The observed quenching may be ascribed to changes in the tryptophan environment of SA resulting from possible denaturation of their secondary structure, induced by the binding of the complexes to the albumins. […]
Io =1+ k τ [Q] =1+ K [Q] […]
S3Albumin -binding studies
In order to investigate if the compounds can bind to carrier proteins like serum albumins, we carried out albumin binding study by tryptophan fluorescence quenching experiments using bo vine serum albumin (BSA, 3 μM) in buffer (containing 15 mM trisodium citrate and 150 mM NaCl at pH 7.0). The quenching of the emission intensity of tryptophan residues of BSA at 343 nm was monitored using the co mpounds as que ncher s with increasing concentration [S4]. The fluo rescence emission spectra of the compounds were also recorded with λex = 295 nm. No fluorescence emission band was recorded and thus it was not related to the compounds . The influence of the inner-filter effect [S6] on the measurements wa s evaluated by equation S4.
Where Icorr = corrected intensity, Imeas = the measured intensity, c = the concentration of the quencher, d = the cuvette (1 cm), ε (λexc ) and ε(λe m) = the ε of the quencher at the excitation and the emission wavelength, respectively, as calculated from the UV-vis spectra of the […]
The Stern-Volmer and Scatchard graphs are used to study the interaction of the compounds with serum albumins. According to Stern-Volmer quenching equation (eq.
S2), where Io = the initial tryptophan fluorescence intensity of SA, I = the tryptophan fluorescence intensity of SA after the addition of the quencher, kq = the quenching […]
constant, KSV = the Stern-Volmer constant, τo = the average lifetime of SA without the quencher, and, tak ing as fluorescence lifet ime (τo) of tryptophan in SA at around 10-8 s [S 4] , KSV (in M -1) can be obtained by the slope of the diagram Io/I versus [compound] (Stern-Volmer plots), and subsequently the quenching (kq, in M -1s-1) may be calculated from eq.
From the Scatchard equation (eq. S5): […]
where n is the number of binding sites per albumin and K is the SA-binding constant (K, in M -1) is calculated from the slope in plots (ΔI/Io)/[complex] versus ΔI/Io and n is given by the ratio of y intercept to the slope [S7].
S1 Kontogiorgis, C.; Hadjipavlou–Lit ina, D. Biological Evaluat ion of Several Coumarin Derivatives Designed as Possible Anti–inflammatory/Antioxidant Agents. J. Enz. Inhib.
S2 Ruch, R.J.; Cheng, C.; Klaunig, J.E. Prevention of cytotoxicity and inhibition of intercellular communication by antioxidant catechins isolated from Chinese green tea.
S3 Wolfe, A.; Shimer, G.; Meehan, T. Polycyclic Aromatic Hydrocarbons Physically Intercalate into Duplex Regions of Denatured DNA. Biochemistry 1987, 26, 6392–6396.
S4 Lakowicz, J.R. Principles of Fluorescence Spectroscopy , 3rd ed.; Plenum Press: New […]
S5 Heller, D.P.; Greenstock, C.L. Fluorescence lifetime analysis of DNA intercalated ethid ium bromide and quench ing by free dye. Biophys. Chem.1994,50, 305–312.
S6 Stella, L.; Capodilupo, A.L.; Bietti, M. A reassessment of the association between […]
azulene and [60]fullerene. […]

SMILES strings stand for the structures.

T1 sequence (P02768 25-609): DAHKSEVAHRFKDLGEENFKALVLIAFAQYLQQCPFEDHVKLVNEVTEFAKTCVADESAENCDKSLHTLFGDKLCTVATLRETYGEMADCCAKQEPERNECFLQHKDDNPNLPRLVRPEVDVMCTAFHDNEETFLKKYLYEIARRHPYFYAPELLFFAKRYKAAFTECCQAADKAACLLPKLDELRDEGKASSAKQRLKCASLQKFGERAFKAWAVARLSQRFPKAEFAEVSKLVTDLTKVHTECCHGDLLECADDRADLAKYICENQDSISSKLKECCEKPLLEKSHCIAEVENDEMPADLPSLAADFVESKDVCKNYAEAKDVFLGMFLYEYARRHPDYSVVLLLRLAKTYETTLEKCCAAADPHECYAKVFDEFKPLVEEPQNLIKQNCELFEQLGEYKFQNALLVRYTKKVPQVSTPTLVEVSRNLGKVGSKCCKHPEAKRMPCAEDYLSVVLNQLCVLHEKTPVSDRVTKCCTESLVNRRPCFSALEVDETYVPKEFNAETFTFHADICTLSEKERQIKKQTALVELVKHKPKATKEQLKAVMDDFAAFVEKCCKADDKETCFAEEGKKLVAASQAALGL

Consider `O=Cc1cc(F)ccc1[O-].O=Cc1cc(F)ccc1[O-].[Cu+2]` [Complex 1, [Cu(5–F–salo)2]], for which, in test [1], the “DPPH% (30 min), % DPPH–scavenging ability” value (“DPPH% (30 min)” below) worked out at 9.05 ± 0.54% and the “DPPH% (60 min), % DPPH–scavenging ability” value (“DPPH% (60 min)” below) was 10.79 ± 0.20%. Besides, in test [2], the “ΔΙ/Ιο, quenching of the HSA fluorescence” value is on record as 61.3%; the “% relative HSA fluorescence emission intensity I/Io remaining (% of initial)” value was 38.7%; the “HSA-binding constant K” value is listed as 1.58 (±0.09) × 10^5 M^−1; the HSA-quenching constant kq was 4.37 (±0.18) × 10^12 M^−1 s^−1.

Consider `O=Cc1cc(F)ccc1[O-].[Cl-].[Cu+2].c1ccc(Nc2ccccn2)nc1` [Complex 2, [Cu(5–F–salo)(bipyam)Cl]], for which, in test [1], the “DPPH% (30 min)” value is on record as 7.54 ± 0.20% and the “DPPH% (60 min)” value was determined as 7.42 ± 0.50%. Also, in test [2], the “ΔΙ/Ιο, quenching of the HSA fluorescence” value amounted to 62.7%; the “% relative HSA fluorescence emission intensity I/Io remaining (% of initial)” value is on record as 37.3%; the “HSA-binding constant K” value was 5.09 (±0.29) × 10^5 M^−1; the HSA-quenching constant kq is recorded as 6.27 (±0.21) × 10^12 M^−1 s^−1.

Turning to `CO.Cc1ccc2ccc3ccc(C)nc3c2n1.O=Cc1cc(F)ccc1[O-].[Cl-].[Cu+2]` [Complex 3, [Cu(5–F–salo)(neoc)Cl].CH3OH], in test [1], the “DPPH% (30 min)” value amounted to 7.42 ± 0.54%. In test [2], the “ΔΙ/Ιο, quenching of the HSA fluorescence” value worked out at 68.5%; the “% relative HSA fluorescence emission intensity I/Io remaining (% of initial)” value amounted to 31.5%; the “HSA-binding constant K” value is 7.16 (±0.40) × 10^5 M^−1; the HSA-quenching constant kq is recorded as 1.25 (±0.05) × 10^13 M^−1 s^−1.

`O=Cc1cc(F)ccc1[O-].O=[N+]([O-])[O-].[Cu+2].c1cnc2c(c1)ccc1cccnc12` [Complex 4, [Cu(5–F–salo)(phen)(NO3)]]: in test [1], the “DPPH% (30 min)” value came to 6.15 ± 0.33% and the “DPPH% (60 min)” value is 4.64 ± 0.10%. Further, in test [2], the “ΔΙ/Ιο, quenching of the HSA fluorescence” value worked out at 74.6%; the “% relative HSA fluorescence emission intensity I/Io remaining (% of initial)” value is given as 25.5%; the “HSA-binding constant K” value is listed as 1.70 (±0.09) × 10^6 M^−1; the HSA-quenching constant kq is listed as 8.63 (±0.33) × 10^12 M^−1 s^−1.

On to `O=Cc1cc(F)ccc1[O-].O=[N+]([O-])[O-].[Cu+2].c1ccc(-c2ccccn2)nc1` [Complex 5, [Cu(5–F–salo)(bipy)(NO3)]], for which, in test [1], the “DPPH% (30 min)” value came out at 7.19 ± 0.26% and the “DPPH% (60 min)” value was 4.06 ± 0.20%. In addition, in test [2], the “ΔΙ/Ιο, quenching of the HSA fluorescence” value came to 63.0%; the “HSA-binding constant K” value is on record as 1.31 (±0.05) × 10^6 M^−1; the HSA-quenching constant kq is listed as 3.01 (±0.10) × 10^12 M^−1 s^−1.
